Activity calls are given as the source filed them. The calls are words filed in the database; no cut-off is given here.
What was measured:
[1] = system: SF-539; assay: Cytotoxicity against human SF539 cells at 10 uM after 48 hrs by sulforhodamine B assay relative to control; format: functional
[2] = system: HT-29; assay: Cytotoxicity against human HT-29 cells at 10 uM after 48 hrs by sulforhodamine B assay relative to control; format: functional
[3] = system: SK-MEL-5; assay: Cytotoxicity against human SK-MEL-5 cells at 10 uM after 48 hrs by sulforhodamine B assay relative to control; format: functional
[4] = system: SN12C; assay: Cytotoxicity against human SN12C cells at 10 uM after 48 hrs by sulforhodamine B assay relative to control; format: functional
[5] = system: NCI-H322M; assay: Cytotoxicity against human NCI-H322M cells at 10 uM after 48 hrs by sulforhodamine B assay relative to control; format: functional
[6] = system: HCT-15; assay: Cytotoxicity against human HCT15 cells at 10 uM after 48 hrs by sulforhodamine B assay relative to control; format: functional
[7] = system: K562; assay: Cytotoxicity against human K562 cells at 10 uM after 48 hrs by sulforhodamine B assay relative to control; format: functional
[8] = system: IGROV-1; assay: Cytotoxicity against human IGROV1 cells at 10 uM after 48 hrs by sulforhodamine B assay relative to control; format: functional
[9] = system: SK-MEL-28; assay: Cytotoxicity against human SK-MEL-28 cells at 10 uM after 48 hrs by sulforhodamine B assay relative to control; format: functional
[10] = system: COLO 205; assay: Cytotoxicity against human COLO205 cells at 10 uM after 48 hrs by sulforhodamine B assay relative to control; format: functional
[11] = system: MCF7; assay: Cytotoxicity against human MCF7 cells at 10 uM after 48 hrs by sulforhodamine B assay relative to control; format: functional
[12] = system: 786-0; assay: Cytotoxicity against human 786-0 cells at 10 uM after 48 hrs by sulforhodamine B assay relative to control; format: functional
[13] = system: U-251; assay: Cytotoxicity against human U251 cells at 10 uM after 48 hrs by sulforhodamine B assay relative to control; format: functional
[14] = system: HL-60(TB); assay: Cytotoxicity against human HL-60(TB) cells at 10 uM after 48 hrs by sulforhodamine B assay relative to control; format: functional
[15] = system: CCRF-CEM; assay: Cytotoxicity against human CCRF-CEM cells at 10 uM after 48 hrs by sulforhodamine B assay relative to control; format: functional
[16] = system: A498; assay: Cytotoxicity against human A498 cells at 10 uM after 48 hrs by sulforhodamine B assay relative to control; format: functional
[17] = system: SNB-19; assay: Cytotoxicity against human SNB19 cells at 10 uM after 48 hrs by sulforhodamine B assay relative to control; format: functional
[18] = system: BT-549; assay: Cytotoxicity against human BT549 cells at 10 uM after 48 hrs by sulforhodamine B assay relative to control; format: functional
[19] = system: DU-145; assay: Cytotoxicity against human DU145 cells at 10 uM after 48 hrs by sulforhodamine B assay relative to control; format: functional
[20] = system: SK-OV-3; assay: Cytotoxicity against human SKOV3 cells at 10 uM after 48 hrs by sulforhodamine B assay relative to control; format: functional
[21] = system: NCI-H226; assay: Cytotoxicity against human NCI-H226 cells at 10 uM after 48 hrs by sulforhodamine B assay relative to control; format: functional
[22] = system: MDA-MB-468; assay: Cytotoxicity against human MDA-MB-468 cells at 10 uM after 48 hrs by sulforhodamine B assay relative to control; format: functional
[23] = system: SNB-75; assay: Cytotoxicity against human SNB75 cells at 10 uM after 48 hrs by sulforhodamine B assay relative to control; format: functional
[24] = system: RPMI-8226; assay: Cytotoxicity against human RPMI8226 cells at 10 uM after 48 hrs by sulforhodamine B assay relative to control; format: functional
[25] = system: A549; assay: Cytotoxicity against human A549 cells at 10 uM after 48 hrs by sulforhodamine B assay relative to control; format: functional
[26] = system: SF-268; assay: Cytotoxicity against human SF268 cells at 10 uM after 48 hrs by sulforhodamine B assay relative to control; format: functional
[27] = system: HCT-116; assay: Cytotoxicity against human HCT116 cells at 10 uM after 48 hrs by sulforhodamine B assay relative to control; format: functional
[28] = system: HCC 2998; assay: Cytotoxicity against human HCC2998 cells at 10 uM after 48 hrs by sulforhodamine B assay relative to control; format: functional
[29] = system: NCI-H23; assay: Cytotoxicity against human NCI-H23 cells at 10 uM after 48 hrs by sulforhodamine B assay relative to control; format: functional
[30] = system: UACC-62; assay: Cytotoxicity against human UACC62 cells at 10 uM after 48 hrs by sulforhodamine B assay relative to control; format: functional
[31] = system: ACHN; assay: Cytotoxicity against human ACHN cells at 10 uM after 48 hrs by sulforhodamine B assay relative to control; format: functional
[32] = system: SW-620; assay: Cytotoxicity against human SW620 cells at 10 uM after 48 hrs by sulforhodamine B assay relative to control; format: functional
[33] = system: Malme-3M; assay: Cytotoxicity against human MALME-3M cells at 10 uM after 48 hrs by sulforhodamine B assay relative to control; format: functional
[34] = system: T47D; assay: Cytotoxicity against human T47D cells at 10 uM after 48 hrs by sulforhodamine B assay relative to control; format: functional
[35] = system: MDA-MB-435; assay: Cytotoxicity against human MDA-MB-435 cells at 10 uM after 48 hrs by sulforhodamine B assay relative to control; format: functional
[36] = system: CAKI-1; assay: Cytotoxicity against human CAKI-1 cells at 10 uM after 48 hrs by sulforhodamine B assay relative to control; format: functional
[37] = Cytotoxicity against human Hs 578T cells at 10 uM after 48 hrs by sulforhodamine B assay relative to control; format: functional
[38] = system: OVCAR-8; assay: Cytotoxicity against human OVCAR8 cells at 10 uM after 48 hrs by sulforhodamine B assay relative to control; format: functional
[39] = system: OVCAR-5; assay: Cytotoxicity against human OVCAR5 cells at 10 uM after 48 hrs by sulforhodamine B assay relative to control; format: functional
[40] = system: MDA-MB-231; assay: Cytotoxicity against human MDA-MB-231 cells at 10 uM after 48 hrs by sulforhodamine B assay relative to control; format: functional
[41] = system: OVCAR-3; assay: Cytotoxicity against human OVCAR3 cells at 10 uM after 48 hrs by sulforhodamine B assay relative to control; format: functional
[42] = system: KM12; assay: Cytotoxicity against human KM12 cells at 10 uM after 48 hrs by sulforhodamine B assay relative to control; format: functional
[43] = system: UACC-257; assay: Cytotoxicity against human UACC257 cells at 10 uM after 48 hrs by sulforhodamine B assay relative to control; format: functional
[44] = system: HOP-92; assay: Cytotoxicity against human HOP92 cells at 10 uM after 48 hrs by sulforhodamine B assay relative to control; format: functional
[45] = system: NCI-H460; assay: Cytotoxicity against human NCI-H460 cells at 10 uM after 48 hrs by sulforhodamine B assay relative to control; format: functional
[46] = system: HOP-62; assay: Cytotoxicity against human HOP62 cells at 10 uM after 48 hrs by sulforhodamine B assay relative to control; format: functional
[47] = system: RXF 393; assay: Cytotoxicity against human RXF393 cells at 10 uM after 48 hrs by sulforhodamine B assay relative to control; format: functional
[48] = system: M14; assay: Cytotoxicity against human M14 cells at 10 uM after 48 hrs by sulforhodamine B assay relative to control; format: functional
[49] = system: PC-3; assay: Cytotoxicity against human PC3 cells after 48 hrs by sulforhodamine B assay; format: functional, cell-based; conditions: PC-3, 48 h
[50] = system: LOX IMVI; assay: Cytotoxicity against human LOXIMVI cells at 10 uM after 48 hrs by sulforhodamine B assay relative to control; format: functional
[51] = system: NCI-H522; assay: Cytotoxicity against human NCI-H522 cells at 10 uM after 48 hrs by sulforhodamine B assay relative to control; format: functional
[52] = system: UO-31; assay: Cytotoxicity against human UO31 cells at 10 uM after 48 hrs by sulforhodamine B assay relative to control; format: functional
[53] = system: SF-295; assay: Cytotoxicity against human SF295 cells at 10 uM after 48 hrs by sulforhodamine B assay relative to control; format: functional
[54] = system: MOLT-4; assay: Cytotoxicity against human MOLT4 cells at 10 uM after 48 hrs by sulforhodamine B assay relative to control; format: functional
[55] = system: NCI/ADR-RES; assay: Cytotoxicity against human NCI/ADR-RES cells at 10 uM after 48 hrs by sulforhodamine B assay relative to control; format: functional
[56] = system: PC-3; assay: Cytotoxicity against human PC3 cells at 10 uM after 48 hrs by sulforhodamine B assay relative to control; format: functional
[57] = species: Homo sapiens; assay: Inhibition of telomerase (unknown origin) at 10 uM TRAP assay
[58] = system: SK-MEL-2; assay: Cytotoxicity against human SK-MEL-2 cells at 10 uM after 48 hrs by sulforhodamine B assay relative to control; format: functional

## CCSCCC(=O)Nc1ccc2c(c1)C(=O)c1cc(NC(=O)CCSCC)ccc1-2
[1]
  Activity: 86.16%
[2]
  Activity: 92.74%
[3]
  Activity: 108.49%
[4]
  Activity: 102.91%
[5]
  Activity: 117.16%
[6]
  Activity: 104.94%
[7]
  Activity: 102.87%
[8]
  Activity: 122.92%
[9]
  Activity: 103.35%
[10]
  Activity: 118.9%
[11]
  Activity: 94.51%
[12]
  Activity: 96.11%
[13]
  Activity: 102.62%
[14]
  Activity: 109.4%
[15]
  Activity: 96.61%
[16]
  Activity: 124.53%
[17]
  Activity: 106.91%
[18]
  Activity: 97.04%
[19]
  Activity: 112.53%
[20]
  Activity: 110.74%
[21]
  Activity: 104.85%
[22]
  Activity: 109.99%
[23]
  Activity: 92.1%
[24]
  Activity: 103.94%
[25]
  Activity: 106.07%
[26]
  Activity: 122.03%
[27]
  Activity: 100.1%
[28]
  Activity: 107.5%
[29]
  Activity: 100.62%
[30]
  Activity: 107.97%
[31]
  Activity: 112.08%
[32]
  Activity: 116.5%
[33]
  Activity: 125.15%
[34]
  Activity: 103.44%
[35]
  Activity: 112.56%
[36]
  Activity: 108.37%
[37]
  Activity: 109.39%
[38]
  Activity: 94.28%
[39]
  Activity: 109.71%
[40]
  Activity: 118.39%
[41]
  Activity: 123.89%
[42]
  Activity: 117.91%
[43]
  Activity: 113.41%
[44]
  Activity: 103.43%
[45]
  Activity: 108.3%
[46]
  Activity: 119.93%
[47]
  Activity: 105.75%
[48]
  Activity: 101.8%
[49]
  IC50: > 30 µM
[50]
  Activity: 69.5%
[51]
  Activity: 90.06%
[52]
  Activity: 92.9%
[53]
  Activity: 85.58%
[54]
  Activity: 102.08%
[55]
  Activity: 103.59%
[56]
  Activity: 100%
[57]
  inhibition: inactive
[58]
  Activity: 117.38%

Reference: ChEMBL document CHEMBL2439971, “Design, synthesis and antiproliferative evaluation of fluorenone analogs with DNA topoisomerase I inhibitory properties” (Bioorg Med Chem, 2013)
